The source of these data is patent publication US9796714B2, “Calcium channel agonists” (University of Pittsburgh—Of the Commonwealth System of …, priority 2013, dated 2017).

Several values for one entry are separate records, joined by “and”; a condition that tells them apart may be missing. Equal entries are not always repeated. Where two headings read alike, the source gives them in different places. Bounds are passed on as bounds.

Test [1] has as its target T1, N-type Ca^2+ channel (Cav2.2) (Rattus norvegicus, UniProt Q02294).
T1 construct: expressed in transfected cells; later also transient transfection
Put plainly: N-type Ca2+ channel agonist activity, whole-cell perforated patch clamp of tail currents in tsA201 cells. The class given is cell-based. On the procedure:
(§1) tsA201 cells expressing calcium channels. […] For subsequent evaluation of effects on N-, P/Q-, or L-type channels, tsA-201 cells were transiently transfected with Cav2.2, Cav2.1, or Cav1.3, in combination with Cavβ3 and […] (Addgene, Cambridge Mass.) using FuGENE 6 (Life Technologies, Grand Island, N.Y.). All cells were maintained in DMEM supplemented with 10% fetal bovine serum. For the stable cell line expressing N-type channels, 25 μg/mL zeocin, 5 μg/mL blasticidin, and 25 μg/mL hygromycin were added as selection agents.
(§2) Whole-cell patch clamp recordings of calcium current. […] Briefly, the pipette solution consisted of […] Cs2SO4, 60 mM CsCl, 1 mM MgCl2, 10 mM 4-(2-hydroxyethyl)-1-piperazineethanesulfonic acid (HEPES) at pH 7.4. […] Patch pipettes were fabricated from borosilicate glass and pulled to a resistance of about 1 MΩ. Before each experiment, a stock solution consisting of 3 mg amphotericin-B dissolved into 50 μL anhydrous DMSO was made. […] Capacitive currents and passive membrane responses to voltage commands were subtracted from the data. Currents were amplified by an Axopatch 200B amplifier, filtered at 5 KHz, and digitized at 10 KHz for subsequent analysis using pClamp software (Axon Instruments/Molecular Devices; Sunnyvale, Calif.). […] To measure effects on calcium channel tail currents, the tail current integral was measured before and after application of a derivative, with the integral of each trace being normalized to its peak. All experiments were carried out at room temperature (22° C.). […] All other salts and chemicals were obtained from Sigma-Aldrich chemical company (St. Louis, Mo.).
(§3) Statistical Analysis. Statistical analysis was performed using either GraphPad Prism 5 (GraphPad Software, Inc.) or Origin 7 (OriginLab) software. For the dose-response analyses on Ca^2+ current, each concentration of the four different compounds was tested in 3-6 cells. […] All EC50 and IC50 values and their respective errors were determined by performing 100 iterations of a logistic function curve fit. Data are presented as mean±s.e.m. unless otherwise noted.
Background: In patch-clamp work, channel activity is measured electrically.

In a further test the target is T2, cdk5 p35(h) (Homo sapiens, UniProt Q00535).
T2 construct: purchased EMD Millipore KinaseProfiler service (Millipore UK Ltd.)
T2 sequence (Q00535 whole entry): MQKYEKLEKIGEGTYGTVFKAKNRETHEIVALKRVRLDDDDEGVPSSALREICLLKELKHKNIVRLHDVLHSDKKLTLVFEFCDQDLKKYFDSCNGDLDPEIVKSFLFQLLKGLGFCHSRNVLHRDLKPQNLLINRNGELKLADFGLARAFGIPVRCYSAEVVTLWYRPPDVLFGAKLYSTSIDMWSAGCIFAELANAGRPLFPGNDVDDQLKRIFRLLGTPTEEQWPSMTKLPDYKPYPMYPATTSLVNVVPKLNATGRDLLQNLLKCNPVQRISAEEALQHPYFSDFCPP
T2 sequence (Q15078 whole entry partner): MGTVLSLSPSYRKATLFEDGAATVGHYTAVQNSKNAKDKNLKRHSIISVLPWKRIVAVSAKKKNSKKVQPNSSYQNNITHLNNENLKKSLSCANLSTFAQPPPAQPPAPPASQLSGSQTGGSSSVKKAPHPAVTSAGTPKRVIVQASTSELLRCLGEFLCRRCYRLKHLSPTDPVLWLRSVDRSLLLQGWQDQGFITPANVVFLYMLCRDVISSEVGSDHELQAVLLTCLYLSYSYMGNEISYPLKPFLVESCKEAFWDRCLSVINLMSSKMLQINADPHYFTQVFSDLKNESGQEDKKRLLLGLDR
The test can be described thus: Kinase inhibitory activity (EMD Millipore KinaseProfiler), cdk5. As to conditions: 20 μM highest concentration used; read-out: Cdk5 EC50/IC50 affinities. The class given is biochemical. The method, then:
(§4) Kinase inhibitory activity. Kinase inhibitory activities were determined using the EMD Millipore KinaseProfiler™ service (Millipore UK Ltd.). Each compound's kinase inhibitory activity was tested at three different concentrations (0.2 μM, 2 μM, and 20 μM) against five different kinases: Cdk1 cyclinB(h), cdk2 cyclinA(h), cdk5 p35(h), mitogen-activated protein kinase (MAPK1(h)) and myosin light-chain kinase (MLCK(h)).
as §3

Test [2] deals with T3, P/Q-type channels (Cav 2.1) (Rattus norvegicus, UniProt P54282).
T3 construct: host or cells: tsA-201
T3 sequence (P54282 whole entry): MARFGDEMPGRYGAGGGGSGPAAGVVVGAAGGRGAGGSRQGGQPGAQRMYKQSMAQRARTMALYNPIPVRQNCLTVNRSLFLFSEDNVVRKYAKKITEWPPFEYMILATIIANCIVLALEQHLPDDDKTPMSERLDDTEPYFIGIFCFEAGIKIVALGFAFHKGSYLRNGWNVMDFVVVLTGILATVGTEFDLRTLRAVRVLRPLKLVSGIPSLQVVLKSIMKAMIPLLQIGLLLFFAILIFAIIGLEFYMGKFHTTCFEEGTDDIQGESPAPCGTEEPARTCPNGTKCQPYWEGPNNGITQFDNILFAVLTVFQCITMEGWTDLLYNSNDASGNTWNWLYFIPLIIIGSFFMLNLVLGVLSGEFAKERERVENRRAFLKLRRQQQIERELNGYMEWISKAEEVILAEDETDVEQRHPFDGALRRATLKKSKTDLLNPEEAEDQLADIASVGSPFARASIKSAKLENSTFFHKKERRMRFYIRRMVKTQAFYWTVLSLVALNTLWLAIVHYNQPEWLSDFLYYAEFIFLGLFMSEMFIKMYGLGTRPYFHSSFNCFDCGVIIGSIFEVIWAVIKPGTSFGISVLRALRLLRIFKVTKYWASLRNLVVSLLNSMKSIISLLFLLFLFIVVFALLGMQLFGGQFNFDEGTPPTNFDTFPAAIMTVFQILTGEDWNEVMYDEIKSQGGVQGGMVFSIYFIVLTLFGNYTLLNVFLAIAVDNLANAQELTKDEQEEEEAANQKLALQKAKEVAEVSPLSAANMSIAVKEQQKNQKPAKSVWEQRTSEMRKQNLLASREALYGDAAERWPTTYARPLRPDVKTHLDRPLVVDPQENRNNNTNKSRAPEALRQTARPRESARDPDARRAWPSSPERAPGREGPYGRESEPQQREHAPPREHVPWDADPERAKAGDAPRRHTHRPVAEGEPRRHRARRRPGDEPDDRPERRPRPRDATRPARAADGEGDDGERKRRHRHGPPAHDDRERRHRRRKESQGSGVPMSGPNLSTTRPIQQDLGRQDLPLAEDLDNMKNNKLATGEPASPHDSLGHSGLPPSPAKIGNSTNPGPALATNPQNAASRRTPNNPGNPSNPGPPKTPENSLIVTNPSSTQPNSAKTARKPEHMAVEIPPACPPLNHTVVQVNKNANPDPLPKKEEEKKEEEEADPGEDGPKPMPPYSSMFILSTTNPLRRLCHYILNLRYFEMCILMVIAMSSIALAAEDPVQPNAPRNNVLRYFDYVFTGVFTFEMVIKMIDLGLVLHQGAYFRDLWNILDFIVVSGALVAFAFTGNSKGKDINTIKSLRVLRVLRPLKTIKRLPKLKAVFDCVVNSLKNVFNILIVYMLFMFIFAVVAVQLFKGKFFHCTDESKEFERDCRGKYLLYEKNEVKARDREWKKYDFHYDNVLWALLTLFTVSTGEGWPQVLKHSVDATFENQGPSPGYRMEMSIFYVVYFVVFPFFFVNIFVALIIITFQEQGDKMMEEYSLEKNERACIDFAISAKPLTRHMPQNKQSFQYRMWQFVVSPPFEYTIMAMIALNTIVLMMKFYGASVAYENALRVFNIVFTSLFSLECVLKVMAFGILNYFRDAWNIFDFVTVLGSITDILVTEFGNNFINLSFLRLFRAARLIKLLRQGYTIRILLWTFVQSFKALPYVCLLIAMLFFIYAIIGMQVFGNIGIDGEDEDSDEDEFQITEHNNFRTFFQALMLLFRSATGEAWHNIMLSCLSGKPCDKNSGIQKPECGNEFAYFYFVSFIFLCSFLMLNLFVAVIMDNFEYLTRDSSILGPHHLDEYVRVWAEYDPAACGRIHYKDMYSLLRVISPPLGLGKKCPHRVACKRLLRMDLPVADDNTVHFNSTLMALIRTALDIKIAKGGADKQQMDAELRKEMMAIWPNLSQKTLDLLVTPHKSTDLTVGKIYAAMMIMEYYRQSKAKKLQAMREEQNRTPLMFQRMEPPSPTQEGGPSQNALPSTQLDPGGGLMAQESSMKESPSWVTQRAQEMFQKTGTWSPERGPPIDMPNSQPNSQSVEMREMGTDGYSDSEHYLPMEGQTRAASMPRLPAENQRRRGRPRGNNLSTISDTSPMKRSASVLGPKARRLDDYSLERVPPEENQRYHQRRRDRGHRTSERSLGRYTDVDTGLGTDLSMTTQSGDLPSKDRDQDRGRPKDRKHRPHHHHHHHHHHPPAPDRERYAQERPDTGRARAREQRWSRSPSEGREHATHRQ
Put plainly: P/Q-type Ca2+ channel agonist activity, whole-cell perforated patch clamp in tsA-201 cells. The format is cell-based. On the procedure: as §1, §2
Capacitive currents and passive membrane responses to voltage commands were subtracted from the data. […] All experiments were carried out at room temperature (22° C.).

The target in a further test is T4, cdk2 cyclinA(h) (Homo sapiens, UniProt P24941).
T4 construct: purchased EMD Millipore KinaseProfiler service (Millipore UK Ltd.)
Put plainly: Kinase inhibitory activity (EMD Millipore KinaseProfiler), cdk2. The class given is biochemical. The method, then: as §4
(§5) Statistical Analysis. […] For the dose-response analyses on Ca^2+ current, each concentration of the four different compounds was tested in 3-6 cells. […] All EC50 and IC50 values and their respective errors were determined by performing 100 iterations of a logistic function curve fit.

A further test deals with T5, Cdk1 cyclinB(h) (Homo sapiens, UniProt P06493).
T5 construct: purchased EMD Millipore KinaseProfiler service (Millipore UK Ltd.)
Put plainly: Kinase inhibitory activity (EMD Millipore KinaseProfiler), cdk1. The class given is biochemical. Conditions: 20 μM highest concentration used; read-out: Cdk1 EC50/IC50 affinities. The method, then:
as §4, §3

The test system of the next test is LEMS model NMJs. The test can be described thus: Intracellular recordings at LEMS model mouse NMJs, 13x, DAP and combination (Example 4). Conditions: 50 μM 13x, […] DAP, or both. The method, then: To test this, intracellular microelectrode recordings were performed on ex vivo nerve-muscle preparations taken from LEMS passive-transfer model mice and measured the magnitude of acetylcholine released at the neuromuscular junction. The most sensitive method of quantifying the magnitude of acetylcholine released is to determine the quantal content. Quantal content is defined as the number of neurotransmitter-containing synaptic vesicles that are released from the nerve terminal during a single action potential stimulus. This value was determined by first measuring the area under the average action potential-evoked endplate potential (EPP) and then dividing this value by the area under the average single vesicle release event (miniature endplate potential; mEPP). This value could be compared between experimental groups to provide an accurate measurement of changes in the magnitude of acetylcholine released during a single action potential. Using this approach, the quantal content among five experimental conditions was compared: control NMJs, LEMS NMJs, LEMS NMJs exposed to 50 μM 13x, LEMS NMJs exposed to 1.5 μM DAP, and LEMS NMJs exposed to 50 μM 13x+1.5 μM DAP (FIG. 10). […]; EPP amplitude=10.18±0.62 mV) as compared with control serum treated mouse NMJs (QC=107.5±3.6; EPP amplitude=34.62±1.37 mV; Tarr et al., 2013). […] In fact, this 13x-mediated enhancement was very similar to what was observed after exposure of LEMS model NMJs to 1.5 μM DAP (QC=49.0±4.4; EPP amplitude=17.94±1.381 mV). […]; EPP amplitude=34.62±1.37 mV; Tarr et al., 2013). […] In summary, while either 13x or DAP alone caused about an 80% increase in transmitter release from LEMS model NMJs, the combination of 13x plus DAP caused about a 300% increase in transmitter release.

For test [3], the target named is T6, myosin light-chain kinase (MLCK(h)) (Homo sapiens, UniProt Q9H1R3).
T6 construct: purchased EMD Millipore KinaseProfiler service (Millipore UK Ltd.)
The test can be described thus: Kinase inhibitory activity (EMD Millipore KinaseProfiler), MLCK. As to conditions: 20 μM highest concentration used; read-out: MLCK EC50/IC50 affinities. The format is biochemical. The method, then: as §4, §5

T1 sequence (Q02294 whole entry): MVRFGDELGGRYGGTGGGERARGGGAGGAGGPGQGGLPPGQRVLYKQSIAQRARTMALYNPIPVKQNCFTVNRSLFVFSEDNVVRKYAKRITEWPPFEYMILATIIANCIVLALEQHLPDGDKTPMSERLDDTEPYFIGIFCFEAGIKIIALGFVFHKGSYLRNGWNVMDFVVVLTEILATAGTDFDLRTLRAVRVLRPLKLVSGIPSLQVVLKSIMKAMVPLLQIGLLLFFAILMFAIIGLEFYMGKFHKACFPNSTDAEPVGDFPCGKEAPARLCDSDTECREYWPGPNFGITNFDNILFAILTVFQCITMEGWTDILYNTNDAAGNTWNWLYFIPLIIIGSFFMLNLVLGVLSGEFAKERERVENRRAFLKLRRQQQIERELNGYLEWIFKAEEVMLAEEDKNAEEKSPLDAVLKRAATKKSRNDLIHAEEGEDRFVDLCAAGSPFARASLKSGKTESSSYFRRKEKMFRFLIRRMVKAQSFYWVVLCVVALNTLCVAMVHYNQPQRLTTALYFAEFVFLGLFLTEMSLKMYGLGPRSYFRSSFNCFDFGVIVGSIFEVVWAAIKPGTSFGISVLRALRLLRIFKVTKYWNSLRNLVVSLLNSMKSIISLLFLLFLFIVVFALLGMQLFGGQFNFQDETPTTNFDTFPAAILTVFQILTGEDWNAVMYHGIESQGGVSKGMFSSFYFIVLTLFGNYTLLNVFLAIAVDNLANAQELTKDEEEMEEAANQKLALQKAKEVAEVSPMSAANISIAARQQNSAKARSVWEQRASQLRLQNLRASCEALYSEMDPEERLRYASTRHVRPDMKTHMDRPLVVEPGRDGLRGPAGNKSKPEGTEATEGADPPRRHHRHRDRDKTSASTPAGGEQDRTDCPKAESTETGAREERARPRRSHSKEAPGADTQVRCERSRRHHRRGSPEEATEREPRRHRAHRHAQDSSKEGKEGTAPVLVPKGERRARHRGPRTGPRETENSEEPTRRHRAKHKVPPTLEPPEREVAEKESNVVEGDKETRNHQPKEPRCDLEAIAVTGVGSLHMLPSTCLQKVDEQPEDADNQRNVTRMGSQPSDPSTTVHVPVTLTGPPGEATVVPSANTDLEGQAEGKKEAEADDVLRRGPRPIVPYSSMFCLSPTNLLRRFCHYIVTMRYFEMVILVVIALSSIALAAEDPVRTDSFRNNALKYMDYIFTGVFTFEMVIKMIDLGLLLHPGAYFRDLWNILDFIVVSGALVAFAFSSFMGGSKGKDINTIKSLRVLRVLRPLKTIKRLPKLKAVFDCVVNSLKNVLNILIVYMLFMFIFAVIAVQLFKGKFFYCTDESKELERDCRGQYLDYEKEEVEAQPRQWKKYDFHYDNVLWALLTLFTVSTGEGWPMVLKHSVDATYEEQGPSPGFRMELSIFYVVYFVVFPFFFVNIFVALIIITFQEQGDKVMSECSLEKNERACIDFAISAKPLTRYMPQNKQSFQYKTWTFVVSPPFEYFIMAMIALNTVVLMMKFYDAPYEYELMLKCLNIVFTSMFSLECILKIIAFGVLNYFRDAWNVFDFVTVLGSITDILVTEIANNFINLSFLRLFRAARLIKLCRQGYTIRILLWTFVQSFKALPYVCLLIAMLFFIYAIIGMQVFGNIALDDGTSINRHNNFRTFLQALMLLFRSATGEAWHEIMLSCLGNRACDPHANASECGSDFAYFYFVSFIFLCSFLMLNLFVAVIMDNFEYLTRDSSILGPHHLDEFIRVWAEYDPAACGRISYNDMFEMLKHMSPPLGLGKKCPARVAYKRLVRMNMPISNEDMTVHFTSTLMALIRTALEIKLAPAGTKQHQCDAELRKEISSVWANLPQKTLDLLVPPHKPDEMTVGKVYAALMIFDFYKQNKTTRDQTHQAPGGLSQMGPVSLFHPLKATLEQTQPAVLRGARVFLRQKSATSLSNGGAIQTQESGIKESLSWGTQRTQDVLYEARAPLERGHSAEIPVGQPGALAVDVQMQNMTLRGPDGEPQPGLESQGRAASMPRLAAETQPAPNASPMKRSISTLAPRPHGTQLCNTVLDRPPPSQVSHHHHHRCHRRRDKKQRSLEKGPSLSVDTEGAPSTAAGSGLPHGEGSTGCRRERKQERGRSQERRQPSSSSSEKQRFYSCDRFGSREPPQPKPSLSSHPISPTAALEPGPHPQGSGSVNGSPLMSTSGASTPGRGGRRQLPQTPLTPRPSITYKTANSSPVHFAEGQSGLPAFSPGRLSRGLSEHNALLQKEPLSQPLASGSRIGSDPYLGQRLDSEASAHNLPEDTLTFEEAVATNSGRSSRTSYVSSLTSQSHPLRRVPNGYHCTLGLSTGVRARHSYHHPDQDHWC

Regarding `CCCn1cnc2c(NCc3ccc(C)s3)nc(N[C@H](CC)CO)nc21` [Compound 13x, (2R)-2-[(6-{[(5-Methylthiophen-2-yl)methyl]amino}-9-propyl-9H-purin-2-yl)amino]butan-1-ol], in test [1] (FIG. 4C dose response curve), the “higher affinity for the calcium channel than (R)-roscovitine” value is 6 fold. In test [1] (N- and P/Q-type), the “increase in efficacy as an agonist for N- and P/Q-type Ca^2+ channels vs (R)-roscovitine” value was about 4 fold. In test [1] (N- and P/Q-type), the “increase in potency as an agonist for N- and P/Q-type Ca^2+ channels vs (R)-roscovitine” value is recorded as 3-4 fold. Further, in test [1] (N-type), the “agonist effect on the Ca^2+ channel tail currents (in words)” value is listed as “strong agonist effect”. Moreover, the “maximal fold increase in the tail current integral relative to control” value in test [1] (N-type channels) is recorded as about 32 fold. Besides, the EC50 is 7.21 ± 0.86 µM in test [1] (Table 3, calcium channel agonist, read-out: N-type EC50/IC50 affinities); 4.6 to 9.8 µM in test [1] (read-out: 95% confidence interval for the fit (EC50) to N-type channels); 7.2 µM and 7.21 µM in test [1] (whole cell perforated patch clamp, deactivation (tail) currents from N-type channels, read-out: N-Type Ca^2+ Channel Activity EC50 +/− SEM); 9.9 µM in test [2] (b265, read-out: agonist effects on P/Q-type calcium channels EC50); 8.8 µM and 8.81 µM in test [2] (calcium channel agonist, Cav 2.1, read-out: P/Q-type EC50/IC50 affinities); 6.7 to 14.5 µM in test [2] (read-out: 95% confidence interval for a fit (EC50) to P/Q channels data). For the same molecule, the EC50 on cdk2 cyclinA(h) (determined in duplicate at 0.2, 2, and 20 μM, read-out: Cdk2 Activity EC50 +/− SEM) was 3 µM. The IC50 on cdk5 p35(h) was 3.03 ± 0.32 µM; on cdk2 cyclinA(h) (20 μM highest concentration used, read-out: Cdk2 EC50/IC50 affinities) it was 3.29 ± 0.43 µM; on Cdk1 cyclinB(h), 20.6 ± 0.96 µM; in test [3], over 20 µM. The “increase of the tail current integral compared to control” value in test [2] (P/Q-type channels) is given as about 33 fold. The “10th EPP of 50 Hz train as % of the first EPP (short-term plasticity)” value in the test with LEMS model NMJs is about 123%. Besides, the “increase in transmitter release from LEMS model NMJs” value with LEMS model NMJs is about 80%. Besides, the EPP amplitude in the test on LEMS model NMJs (LEMS model NMJs) is 13.75±1.244 mV. In the test with LEMS model NMJs (LEMS model NMJs, mean±s.e.m.), the “quantal content (QC, area of EPP divided by area of mEPP)” value is given as 48.4±2.7.
